Biological target: human PHD2 (Homo sapiens (Human), UniProt Q9GZT9)
Assay: Test 2: human PHD2 inhibitory activity, fluorescence polarization assay of HIF-1α peptide proline hydroxylation
Assay type: biochemical
Conditions: human PHD2, fluorescence polarization assay, 20-min incubation at 30° C.
Method: (1) Expression and Preparation of Human PHD2
A registered sequence of human PHD2 (NM_022051) was introduced into pcDNA3.1/Hygro(+) vector (Invitrogen), and the sequence was verified. […] The suspension of disrupted cells was centrifuged at 4° C. and 100,000×g for 30 minutes and the supernatant was recovered as a cell lysate.
(2) Measurement of Human PHD2 Inhibitory Activity
The activity of human PHD2 enzyme was measured with a substrate which is a 19-residue partial peptide based on the sequence of HIF-1α; specifically, the hydroxylation of a proline residue in the peptide was measured by FP (Fluorescence Polarization).
A test compound and the substrate solution were preliminarily added onto 384-well plates and reaction was initiated by adding a human PHD2 enzyme solution (40 ng/well). After 20-min incubation at 30° C., an EDTA-containing quench solution was added and the amount of the proline residues hydroxylated via binding to an added HIF—OH antibody solution was quantified by fluorescence polarization.
The fluorescence polarization of each well was measured and the human PHD2 inhibitory activity of each test compound was calculated on the basis of the values for the test compound-free group.

Sequence of human PHD2 (Q9GZT9 whole entry): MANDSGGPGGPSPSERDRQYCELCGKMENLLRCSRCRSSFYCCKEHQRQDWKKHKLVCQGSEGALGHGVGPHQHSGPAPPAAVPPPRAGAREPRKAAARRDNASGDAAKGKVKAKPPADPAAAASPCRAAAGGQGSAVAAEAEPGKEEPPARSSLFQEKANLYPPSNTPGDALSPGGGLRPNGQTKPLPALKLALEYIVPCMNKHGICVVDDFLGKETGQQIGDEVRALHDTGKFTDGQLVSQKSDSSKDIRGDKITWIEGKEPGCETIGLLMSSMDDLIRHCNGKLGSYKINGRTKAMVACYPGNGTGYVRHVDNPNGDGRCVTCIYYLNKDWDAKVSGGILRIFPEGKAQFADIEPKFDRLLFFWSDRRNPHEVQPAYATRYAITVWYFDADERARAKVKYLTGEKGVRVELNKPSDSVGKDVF

Compound | IC50 [nM]
Cc1ccc(Oc2ncc(CN3CCC(O)=C(C(=O)NCC(=O)O)C3=O)cc2C)cn1 [Ex. 1-333] | 92
O=C(O)CNC(=O)C1=C(O)CCN(Cc2ccc(Oc3ccc(C(F)(F)F)cc3)cn2)C1=O [Ex. 1-356] | 60

Results, then the molecule that gave them:

IC50 [nM] | Compound
409 | O=C(O)CNC(=O)C1=C(O)CCN(Cc2ccc(Oc3ncccn3)cc2)C1=O [Ex. 1-226]
61 | COc1cccc(Oc2ccc(CN3CCC(O)=C(C(=O)NCC(=O)O)C3=O)cn2)c1 [Ex. 1-354]
56 | O=C(O)CNC(=O)C1=C(O)CCN(Cc2ccc(Oc3ccc(C(F)(F)F)nc3)cc2)C1=O [Ex. 1-365]
19 | Cc1ccc(Oc2ccc(CN3CCC(O)=C(C(=O)NCC(=O)O)C3=O)cn2)cc1Cl [Ex. 1-366]
26 | Cc1ccc(Oc2ccc(CN3CCC(O)=C(C(=O)NCC(=O)O)C3=O)cn2)cc1F [Ex. 1-367]
41 | Cc1cc(Oc2ccc(CN3CCC(O)=C(C(=O)NCC(=O)O)C3=O)cn2)ccc1F [Ex. 1-368]
22 | CCc1ccc(Oc2ccc(CN3CCC(O)=C(C(=O)NCC(=O)O)C3=O)cn2)cc1 [Ex. 1-376]
15 | CCCc1ccc(Oc2ccc(CN3CCC(O)=C(C(=O)NCC(=O)O)C3=O)cn2)cc1 [Ex. 1-377]
14 | CC(C)c1ccc(Oc2ccc(CN3CCC(O)=C(C(=O)NCC(=O)O)C3=O)cn2)cc1 [Ex. 1-378]

Same assay, conditions: test compound's concentration 1 μM; Test 2, fluorescence polarization assay; read-out: Percent inhibition (% at 1 μM)

Compound | inhibition at 1 µM [%]
O=C(O)CNC(=O)C1=C(O)CCN(CC2CCN(C(=O)OCc3ccccc3)CC2)C1=O [Ex. 1-248] | 94
O=C(O)CNC(=O)C1=C(O)CCNC1=O [Ex. 1-308] | 41
CN1CCC(O)=C(C(=O)NCC(=O)O)C1=O [Ex. 1-309] | 58
O=C(O)CNC(=O)C1=C(O)CC2(CCCCC2)CN(Cc2ccccc2)C1=O [Ex. 1-310] | 59
O=C(O)CNC(=O)C1=C(O)CC2(CCNCC2)N(Cc2ccc(-c3ccccc3)cc2)C1=O [Ex. 1-311] | 83
O=C(O)CNC(=O)C1=C(O)CC2(CCCCC2)CN(Cc2ccc(-c3ccccc3)cc2)C1=O [Ex. 1-312] | 86
O=C(O)CNC(=O)C1=C(O)CC2(CNC2)N(Cc2ccc(-c3ccccc3)cc2)C1=O [Ex. 1-313] | 96
O=C(O)CNC(=O)C1=C(O)CC2(CNC(=O)C2)N(Cc2ccc(-c3ccccc3)cc2)C1=O (centres unmarked) [Ex. 1-314] | 86
CN1CC2(CC1=O)CC(O)=C(C(=O)NCC(=O)O)C(=O)N2Cc1ccc(-c2ccccc2)cc1 (centres unmarked) [Ex. 1-315] | 81
CCCCCCCCCN1CCC(O)=C(C(=O)NCC(=O)O)C1=O [Ex. 1-317] | 85
O=C(O)CNC(=O)C1=C(O)CN(Cc2ccc(-c3ccccc3)cc2)C1=O [Ex. 1-318] | 96
CC(C)CN1CCC(O)=C(C(=O)NCC(=O)O)C1=O [Ex. 1-319] | 42
O=C(O)CNC(=O)C1=C(O)CCN(Cc2cncnc2)C1=O [Ex. 1-320] | 57
CC1C(O)=C(C(=O)NCC(=O)O)C(=O)N1Cc1ccc(-c2ccccc2)cc1 (centres unmarked) [Ex. 1-323] | 87
CC1(C)C(O)=C(C(=O)NCC(=O)O)C(=O)N1Cc1ccc(-c2ccccc2)cc1 [Ex. 1-324] | 91
O=C(O)CNC(=O)C1=C(O)C2(CCCCC2)N(Cc2ccc(-c3ccccc3)cc2)C1=O [Ex. 1-325] | 90
O=C(O)CNC(=O)C1=C(O)C(c2ccccc2)N(Cc2ccc(-c3ccccc3)cc2)C1=O (centres unmarked) [Ex. 1-326] | 71
CS(=O)(=O)c1ccc(CN2C(=O)C(C(=O)NCC(=O)O)=C(O)CC23CCCCC3)cc1 [Ex. 1-328] | 63
O=C(O)CNC(=O)C1=C(O)C2(CCCCC2)N(Cc2ccc(-c3ccc(C(F)(F)F)cc3)cc2)C1=O [Ex. 1-329] | 87
CC(C)(C)c1ccc(-c2ccc(CN3C(=O)C(C(=O)NCC(=O)O)=C(O)C34CCCCC4)cc2)cc1 [Ex. 1-330] | 69

Compound | inhibition at 1 µM [%]
CS(=O)(=O)c1ccc(CN2CC3(CCCCC3)C(O)=C(C(=O)NCC(=O)O)C2=O)cc1 [Ex. 1-331] | 75
O=C(O)CNC(=O)C1=C(O)C2(CCCCC2)N(CC2CCC(c3ccccc3)CC2)C1=O (centres unmarked) [Ex. 1-332] | 73
Cc1ccc(Oc2ncc(CN3CCC(O)=C(C(=O)NCC(=O)O)C3=O)cc2C)cn1 [Ex. 1-333] | 91
O=C(O)CNC(=O)C1=C(O)C(F)(F)CN(Cc2ccc(C(F)(F)F)cc2)C1=O [Ex. 1-334] | 96
O=C(O)CNC(=O)C1=C(O)CCN(Cc2ccc(-c3cccnc3)cn2)C1=O [Ex. 1-336] | 82
Cn1cc(CN2CCC(O)=C(C(=O)NCC(=O)O)C2=O)cn1 [Ex. 1-337] | 66
O=C(O)CNC(=O)C1=C(O)CCN(Cc2cnc(C(F)(F)F)nc2)C1=O [Ex. 1-338] | 71
Cc1nc(CN2CCC(O)=C(C(=O)NCC(=O)O)C2=O)c[nH]1 [Ex. 1-339] | 40
O=C(O)CNC(=O)C1=C(O)CCN(Cc2cnc(N3CCOCC3)s2)C1=O [Ex. 1-340] | 69
Cc1csc(CN2CCC(O)=C(C(=O)NCC(=O)O)C2=O)n1 [Ex. 1-341] | 66
O=C(O)CNC(=O)C1=C(O)CCN(C[C@H]2C[C@@H]2c2ccc(F)cc2)C1=O [Ex. 1-352] | 91
O=C(O)CNC(=O)C1=C(O)CCN(Cc2ccc(Oc3ccc(C(F)(F)F)cc3)cn2)C1=O [Ex. 1-356] | 96
O=C(O)CNC(=O)C1=C(O)C2(CCC2)CN(Cc2ccc(OC(F)(F)F)c(Cl)c2)C1=O [Ex. 1-357] | 74
COc1ccc(-c2ccc(CN3CC(C)(C)C(O)=C(C(=O)NCC(=O)O)C3=O)cc2)cn1 [Ex. 1-358] | 88
CC1(C)CN(Cc2ccc(OC3CC3)cc2)C(=O)C(C(=O)NCC(=O)O)=C1O [Ex. 1-359] | 69
COc1ccc(-c2ccc(CN3CC4(CCC4)C(O)=C(C(=O)NCC(=O)O)C3=O)cc2)cn1 [Ex. 1-361] | 93
CC1(C)CN(Cc2ccc(C3CC3)cc2)C(=O)C(C(=O)NCC(=O)O)=C1O [Ex. 1-362] | 83
O=C(O)CNC(=O)C1=C(O)C2(CCC2)CN(Cc2ccc(OC3CC3)cc2)C1=O [Ex. 1-363] | 77
O=C(O)CNC(=O)C1=C(O)CCN(CC2CC(c3ccc(F)cc3)C2)C1=O (centres unmarked) [Ex. 1-371] | 90

Now from value to molecule:

inhibition at 1 µM [%] | Compound
84 | O=C(O)CNC(=O)C1=C(O)CCN(Cc2ccc(Oc3ncccn3)cc2)C1=O [Ex. 1-226]
87 | O=C(O)CNC(=O)C1=C(O)CCN(Cc2ccc(-c3cncnc3)cc2)C1=O [Ex. 1-316]
84 | O=C(O)CNC(=O)C1=C(O)CCN(Cc2ccc(C(=O)N3CCCCC3)cc2)C1=O [Ex. 1-321]
77 | CCCNC(=O)c1ccc(CN2CCC(O)=C(C(=O)NCC(=O)O)C2=O)cc1 [Ex. 1-322]
81 | CS(=O)(=O)c1ccc(CN2CCC(O)=C(C(=O)NCC(=O)O)C2=O)cc1 [Ex. 1-327]
73 | O=C(O)CNC(=O)C1=C(O)CCN(Cc2ccc(C(=O)O)cc2)C1=O [Ex. 1-335]
57 | CN1CCN(c2ccc(CN3CCC(O)=C(C(=O)NCC(=O)O)C3=O)cc2)CC1 [Ex. 1-342]
51 | CN(C)CCCOc1ccc(CN2CCC(O)=C(C(=O)NCC(=O)O)C2=O)cc1 [Ex. 1-343]
76 | O=C(O)CNC(=O)C1=C(O)CCN(Cc2ccc(OCCO)cc2)C1=O [Ex. 1-344]
55 | CN(C)CCNC(=O)c1ccc(CN2CCC(O)=C(C(=O)NCC(=O)O)C2=O)cc1 [Ex. 1-345]
80 | O=C(O)CNC(=O)C1=C(O)CCN(Cc2ccc(OCC(=O)O)cc2)C1=O [Ex. 1-346]
55 | O=C(O)CNC(=O)C1=C(O)CCN(Cc2ccc(C(=O)NCCO)cc2)C1=O [Ex. 1-347]
76 | O=C(O)CNC(=O)C1=C(O)CCN(Cc2ccc(C(=O)NCc3ccccn3)cc2)C1=O [Ex. 1-348]
74 | O=C(O)CNC(=O)C1=C(O)CCN(Cc2ccc(C(=O)NCCc3ccccn3)cc2)C1=O [Ex. 1-349]
61 | O=C(O)CNC(=O)C1=C(O)CCN(Cc2ccc(C(=O)NCCN3CCCC3=O)cc2)C1=O [Ex. 1-350]
81 | O=C(O)CNC(=O)C1=C(O)CCN(Cc2ccc(C(=O)NCC(=O)O)cc2)C1=O [Ex. 1-351]
96 | COc1cccc(Oc2ccc(CN3CCC(O)=C(C(=O)NCC(=O)O)C3=O)cn2)c1 [Ex. 1-354]

inhibition at 1 µM [%] | Compound
97 | Cc1cccc(COc2ccc(CN3CCC(O)=C(C(=O)NCC(=O)O)C3=O)cc2)c1 [Ex. 1-364]
97 | O=C(O)CNC(=O)C1=C(O)CCN(Cc2ccc(Oc3ccc(C(F)(F)F)nc3)cc2)C1=O [Ex. 1-365]
103 | Cc1ccc(Oc2ccc(CN3CCC(O)=C(C(=O)NCC(=O)O)C3=O)cn2)cc1Cl [Ex. 1-366]
105 | Cc1ccc(Oc2ccc(CN3CCC(O)=C(C(=O)NCC(=O)O)C3=O)cn2)cc1F [Ex. 1-367]
101 | Cc1cc(Oc2ccc(CN3CCC(O)=C(C(=O)NCC(=O)O)C3=O)cn2)ccc1F [Ex. 1-368]
98 | O=C(O)CNC(=O)C1=C(O)CCN(Cc2ccc(OCc3ccccc3Cl)cc2)C1=O [Ex. 1-369]
84 | CC1(COc2ccc(CN3CCC(O)=C(C(=O)NCC(=O)O)C3=O)cc2)CC1 [Ex. 1-370]
89 | O=C(O)CNC(=O)C1=C(O)CCN(Cc2ccc(OCc3cccnc3)cc2)C1=O [Ex. 1-372]
85 | Cc1cccc(COc2ccc(CN3CCC(O)=C(C(=O)NCC(=O)O)C3=O)cc2)n1 [Ex. 1-373]
96 | O=C(O)CNC(=O)C1=C(O)CCN(Cc2ccc(OCc3ccccc3)c(F)c2)C1=O [Ex. 1-374]
85 | O=C(O)CNC(=O)C1=C(O)CCN(Cc2ccc(OCc3ccc(OC(F)(F)F)cc3)cc2)C1=O [Ex. 1-375]
100 | CCc1ccc(Oc2ccc(CN3CCC(O)=C(C(=O)NCC(=O)O)C3=O)cn2)cc1 [Ex. 1-376]
96 | CCCc1ccc(Oc2ccc(CN3CCC(O)=C(C(=O)NCC(=O)O)C3=O)cn2)cc1 [Ex. 1-377]
98 | CC(C)c1ccc(Oc2ccc(CN3CCC(O)=C(C(=O)NCC(=O)O)C3=O)cn2)cc1 [Ex. 1-378]
84 | Cc1cc(CN2CCC(O)=C(C(=O)NCC(=O)O)C2=O)ccc1OCC(F)(F)F [Ex. 1-379]
92 | O=C(O)CNC(=O)C1=C(O)CCN(Cc2ccc(OCc3ccccc3)nc2)C1=O [Ex. 1-380]

From patent US9422240B2, “Partially saturated nitrogen-containing heterocyclic compound” (TAISHO PHARMACEUTICAL CO., LTD, priority 2012, dated 2016)
